Reference: ChEMBL document CHEMBL1153114, “Discovery of orally available integrin alpha5beta1 antagonists” (Bioorg Med Chem Lett, 2010)
pIC50: −log10 of the molar value.

How the values were obtained:
[1] = biological target: Integrin alpha-V/beta-3 (Homo sapiens, UniProt P05106+P06756); test: Binding affinity to integrin […] receptor by ELISA; format: protein-complex assay
[2] = biological target: Integrin alpha-IIb/beta-3 (Homo sapiens, UniProt P05106+P08514); test: Binding affinity to integrin alpha2bbeta3 receptor by ELISA; format: protein-complex assay
[3] = biological target: Integrin alpha-V/beta-5 (Homo sapiens, UniProt P06756+P18084); test: Binding affinity to integrin […] receptor by ELISA; format: protein-complex assay
Integrin alpha-V/beta-5, sequence (P06756 31-889 limits assumed): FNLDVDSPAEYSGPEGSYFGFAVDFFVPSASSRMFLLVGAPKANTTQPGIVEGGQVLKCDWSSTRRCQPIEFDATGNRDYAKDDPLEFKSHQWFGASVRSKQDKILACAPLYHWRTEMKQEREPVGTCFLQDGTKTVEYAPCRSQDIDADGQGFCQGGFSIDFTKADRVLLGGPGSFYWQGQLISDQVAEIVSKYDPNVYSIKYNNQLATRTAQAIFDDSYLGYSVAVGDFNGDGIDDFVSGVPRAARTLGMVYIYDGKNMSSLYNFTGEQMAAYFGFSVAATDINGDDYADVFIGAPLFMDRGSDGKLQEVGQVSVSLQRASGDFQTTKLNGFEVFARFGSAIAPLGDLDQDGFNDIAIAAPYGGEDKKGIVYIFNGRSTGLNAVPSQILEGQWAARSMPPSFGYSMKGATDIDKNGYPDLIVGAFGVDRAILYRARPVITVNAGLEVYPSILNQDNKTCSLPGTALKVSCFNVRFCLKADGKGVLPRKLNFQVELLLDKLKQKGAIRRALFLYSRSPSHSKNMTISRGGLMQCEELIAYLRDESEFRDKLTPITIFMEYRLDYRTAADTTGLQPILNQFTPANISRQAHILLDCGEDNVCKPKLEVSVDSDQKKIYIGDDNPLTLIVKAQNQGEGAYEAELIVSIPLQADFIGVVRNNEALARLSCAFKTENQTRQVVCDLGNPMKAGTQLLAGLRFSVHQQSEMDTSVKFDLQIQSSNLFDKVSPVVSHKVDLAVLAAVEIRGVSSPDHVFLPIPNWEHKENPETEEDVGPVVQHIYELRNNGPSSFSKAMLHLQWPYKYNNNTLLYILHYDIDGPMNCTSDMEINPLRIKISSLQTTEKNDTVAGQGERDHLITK
Integrin alpha-V/beta-5, sequence (P06756 891-1048 limits assumed): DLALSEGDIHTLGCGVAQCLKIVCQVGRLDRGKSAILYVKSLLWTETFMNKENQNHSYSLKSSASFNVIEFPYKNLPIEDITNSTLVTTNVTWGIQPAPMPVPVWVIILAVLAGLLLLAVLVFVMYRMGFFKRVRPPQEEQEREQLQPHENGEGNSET
Integrin alpha-V/beta-5, sequence (P18084 24-799 limits assumed): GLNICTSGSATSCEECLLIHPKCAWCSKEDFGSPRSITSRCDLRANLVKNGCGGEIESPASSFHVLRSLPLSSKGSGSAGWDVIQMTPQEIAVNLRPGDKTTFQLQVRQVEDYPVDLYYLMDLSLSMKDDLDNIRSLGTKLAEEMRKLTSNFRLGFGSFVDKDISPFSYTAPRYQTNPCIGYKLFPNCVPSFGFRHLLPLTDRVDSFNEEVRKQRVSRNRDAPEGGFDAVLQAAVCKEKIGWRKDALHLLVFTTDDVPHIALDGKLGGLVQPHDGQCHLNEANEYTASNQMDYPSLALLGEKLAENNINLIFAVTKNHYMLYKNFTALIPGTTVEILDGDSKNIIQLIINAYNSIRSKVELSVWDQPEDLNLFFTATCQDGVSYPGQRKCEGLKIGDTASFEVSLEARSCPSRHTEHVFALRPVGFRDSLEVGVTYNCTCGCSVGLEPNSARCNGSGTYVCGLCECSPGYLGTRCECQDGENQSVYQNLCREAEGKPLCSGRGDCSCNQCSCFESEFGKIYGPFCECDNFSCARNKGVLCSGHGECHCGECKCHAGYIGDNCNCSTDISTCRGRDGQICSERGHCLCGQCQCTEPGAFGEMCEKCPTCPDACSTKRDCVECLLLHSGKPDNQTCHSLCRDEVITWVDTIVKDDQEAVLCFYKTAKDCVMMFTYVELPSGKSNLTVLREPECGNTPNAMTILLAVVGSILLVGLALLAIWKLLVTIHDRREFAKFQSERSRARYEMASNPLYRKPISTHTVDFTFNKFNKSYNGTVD

[4] = biological target: Integrin alpha-5/beta-1 (Homo sapiens, UniProt P05556+P08648); test: Binding affinity to integrin alpha5beta1 receptor by ELISA; format: protein-complex assay
Integrin alpha-5/beta-1, sequence (P05556 21-798 limits assumed): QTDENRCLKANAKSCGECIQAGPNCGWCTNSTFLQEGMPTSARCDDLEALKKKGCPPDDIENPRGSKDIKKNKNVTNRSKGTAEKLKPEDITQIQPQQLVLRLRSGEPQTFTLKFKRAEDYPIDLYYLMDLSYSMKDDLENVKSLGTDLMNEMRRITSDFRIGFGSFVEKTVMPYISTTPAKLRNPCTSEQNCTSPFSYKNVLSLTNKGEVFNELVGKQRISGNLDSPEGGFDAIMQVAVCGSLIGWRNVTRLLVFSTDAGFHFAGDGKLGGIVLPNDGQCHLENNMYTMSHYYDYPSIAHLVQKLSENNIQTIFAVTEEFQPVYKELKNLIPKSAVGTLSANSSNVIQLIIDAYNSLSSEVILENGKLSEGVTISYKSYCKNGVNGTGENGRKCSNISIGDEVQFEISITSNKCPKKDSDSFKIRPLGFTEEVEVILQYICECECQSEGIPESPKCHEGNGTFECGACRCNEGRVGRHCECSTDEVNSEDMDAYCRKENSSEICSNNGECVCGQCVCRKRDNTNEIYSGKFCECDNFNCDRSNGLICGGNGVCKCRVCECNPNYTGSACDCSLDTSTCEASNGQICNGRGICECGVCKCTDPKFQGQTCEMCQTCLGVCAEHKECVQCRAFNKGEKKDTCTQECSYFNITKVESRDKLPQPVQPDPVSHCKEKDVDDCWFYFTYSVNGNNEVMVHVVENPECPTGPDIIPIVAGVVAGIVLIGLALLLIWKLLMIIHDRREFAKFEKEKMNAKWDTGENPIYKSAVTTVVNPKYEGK
Integrin alpha-5/beta-1, sequence (P08648 42-894 limits assumed): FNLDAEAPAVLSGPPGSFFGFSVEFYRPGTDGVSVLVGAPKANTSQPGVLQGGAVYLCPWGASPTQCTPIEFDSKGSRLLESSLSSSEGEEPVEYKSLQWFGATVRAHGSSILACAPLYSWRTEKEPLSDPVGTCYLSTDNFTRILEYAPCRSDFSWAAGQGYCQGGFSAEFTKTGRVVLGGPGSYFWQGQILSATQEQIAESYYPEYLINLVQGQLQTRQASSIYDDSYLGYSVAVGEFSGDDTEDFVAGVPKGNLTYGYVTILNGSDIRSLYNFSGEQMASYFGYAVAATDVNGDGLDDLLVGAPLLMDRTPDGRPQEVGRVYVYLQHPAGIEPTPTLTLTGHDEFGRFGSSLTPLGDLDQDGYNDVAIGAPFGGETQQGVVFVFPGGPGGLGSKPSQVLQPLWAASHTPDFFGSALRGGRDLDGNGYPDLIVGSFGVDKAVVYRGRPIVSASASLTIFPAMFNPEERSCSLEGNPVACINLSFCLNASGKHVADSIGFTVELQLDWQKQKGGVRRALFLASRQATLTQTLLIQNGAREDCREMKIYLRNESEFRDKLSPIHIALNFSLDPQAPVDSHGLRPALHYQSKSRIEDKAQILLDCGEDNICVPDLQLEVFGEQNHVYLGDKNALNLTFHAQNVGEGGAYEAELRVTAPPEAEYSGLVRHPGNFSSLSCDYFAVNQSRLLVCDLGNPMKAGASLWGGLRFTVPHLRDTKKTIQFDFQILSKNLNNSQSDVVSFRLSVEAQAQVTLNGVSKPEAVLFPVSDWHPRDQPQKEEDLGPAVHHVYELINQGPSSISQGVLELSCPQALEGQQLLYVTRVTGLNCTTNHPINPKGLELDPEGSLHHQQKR
Integrin alpha-5/beta-1, sequence (P08648 895-1049 limits assumed): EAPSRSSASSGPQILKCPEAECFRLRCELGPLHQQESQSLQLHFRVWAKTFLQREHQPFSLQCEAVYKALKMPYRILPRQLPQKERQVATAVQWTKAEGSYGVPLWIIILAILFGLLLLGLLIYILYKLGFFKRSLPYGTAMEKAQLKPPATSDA

[5] = Oral bioavailability in Wistar rat at 10 mg/kg; format: ADME, organism-based; details: in vivo
[6] = test system: Rattus norvegicus; test: (§1) Terminal half life in Clearance in Wistar rat at 1 mg/kg, iv; format: ADME, organism-based; parameters: dose 1 mg/kg, route intravenous; details: in vivo
[7] = Clearance in Wistar rat at 1 mg/kg, iv; format: ADME, organism-based; parameters: dose 1 mg/kg, route intravenous; details: in vivo
[8] = as §1; format: ADME, organism-based; parameters: dose 1 mg/kg, route intravenous; details: Wistar, in vivo, read-out: beta t1/2

Integrin alpha-V/beta-3, sequence (P05106 27-788 limits assumed): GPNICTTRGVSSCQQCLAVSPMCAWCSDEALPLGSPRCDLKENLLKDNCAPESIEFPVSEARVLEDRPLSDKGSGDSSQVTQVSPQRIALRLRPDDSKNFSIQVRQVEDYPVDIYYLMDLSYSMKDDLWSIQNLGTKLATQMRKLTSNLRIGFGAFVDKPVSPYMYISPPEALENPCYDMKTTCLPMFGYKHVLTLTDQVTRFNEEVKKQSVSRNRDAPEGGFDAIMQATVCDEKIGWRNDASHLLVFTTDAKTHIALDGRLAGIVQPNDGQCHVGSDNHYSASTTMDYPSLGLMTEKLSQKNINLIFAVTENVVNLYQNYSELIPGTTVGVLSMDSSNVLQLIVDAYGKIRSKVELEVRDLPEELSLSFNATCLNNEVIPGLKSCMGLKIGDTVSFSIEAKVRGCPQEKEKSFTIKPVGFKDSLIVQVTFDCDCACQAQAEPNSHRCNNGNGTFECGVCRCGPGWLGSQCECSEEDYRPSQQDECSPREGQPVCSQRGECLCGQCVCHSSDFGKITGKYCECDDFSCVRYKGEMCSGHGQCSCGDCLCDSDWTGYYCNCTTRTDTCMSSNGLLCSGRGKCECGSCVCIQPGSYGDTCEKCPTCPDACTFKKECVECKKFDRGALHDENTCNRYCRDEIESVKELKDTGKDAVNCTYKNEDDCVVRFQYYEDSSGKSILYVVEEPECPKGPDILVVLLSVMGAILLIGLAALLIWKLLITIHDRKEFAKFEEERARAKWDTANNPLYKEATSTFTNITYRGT
Integrin alpha-V/beta-3, sequence (P06756 31-889 limits assumed): as the sequence (P06756 31-889 limits assumed) above
Integrin alpha-V/beta-3, sequence (P06756 891-1048 limits assumed): as the sequence (P06756 891-1048 limits assumed) above

SMILES	pIC50 [1]	pIC50 [2]	pIC50 [3]	pIC50 [4]	bioavailability [5] [%]	beta t1/2 [6] [min]	clearance [7] [mL/min/kg]	half-life [8] [min]
Cc1ccnc(NCc2cccc(-c3ccc(CC(NC(=O)c4c(C)cc(C)cc4C)C(=O)O)cc3)c2)c1 (racemic)	6.05	3.74	< 4.70	7.06				
Cc1ccnc(NCC2CCN(c3ccc(CC(NC(=O)c4c(C)cc(C)cc4C)C(=O)O)cc3)CC2)c1 (racemic)	7.08	4.64	4.96	8.64	16	66	70	
Cc1ccnc(NCC2CC(=O)N(c3ccc(C[C@H](NC(=O)c4c(C)cc(C)cc4C)C(=O)O)cc3)C2)c1 (some centres undefined)	6.50		5.87	8.80				
Cc1ccnc(NCc2csc(-c3ccc(C[C@H](NC(=O)c4c(C)cc(C)cc4C)C(=O)O)cc3)c2)c1	5.76	4.01	5.45	7.34				
Cc1ccnc(NCc2ccc(-c3ccc(CC(NC(=O)c4c(C)cc(C)cc4C)C(=O)O)cc3)cc2)c1 (racemic)	5.53	3.78	< 7.70	7.19				
Cc1ccnc(NCc2cc(-c3ccc(C[C@H](NC(=O)c4c(C)cc(C)cc4C)C(=O)O)cc3)on2)c1	6.58	3.93	6.59	8.21	11		9	138
Cc1cc(C)c(C(=O)N[C@@H](CNC(=O)CO[C@H]2C[C@H](CNc3ccccn3)N(C(=O)CC(C)(C)C)C2)C(=O)O)c(C)c1	4.80	< 4.30	4.04	8.80				
Cc1ccnc(NCc2cnc(-c3ccc(C[C@H](NC(=O)c4c(C)cc(C)cc4C)C(=O)O)cc3)s2)c1	6.33	3.82	6.30	7.89				
Cc1ccnc(NCc2cn(-c3ccc(C[C@H](NC(=O)c4c(C)cc(C)cc4C)C(=O)O)cc3)nn2)c1	7.00	4.05	6.46	8.82				
Cc1ccnc(NCc2coc(-c3ccc(C[C@H](NC(=O)c4c(C)cc(C)cc4C)C(=O)O)cc3)c2)c1	5.62	4.28	5.61	7.10	26		17	88
Cc1cc(C)c(C(=O)N[C@@H](Cc2ccc(OCCCNc3ccccn3)cc2)C(=O)O)c(C)c1	6.15			8.60				
Cc1ccnc(NCc2sccc2-c2ccc(C[C@H](NC(=O)c3c(C)cc(C)cc3C)C(=O)O)cc2)c1	4.80	4.11	4.77	6.05				
